Measurements from ChEMBL document CHEMBL5120918, “Marinoquinolones and Marinobactoic Acid: Antimicrobial and Cytotoxic ortho-Dialkylbenzene-Class Metabolites Produced by a Marine Obligate Gammaproteobacterium of the Genus Marinobacterium” (J Nat Prod, 2022).
Converted amounts (≈) assume the structure as drawn.

Assays:
[1] = test system: Colletotrichum gloeosporioides; experiment: Antimicrobial activity against Glomerella cingulata NBRC5907 assessed as inhibition of […] growth incubated for 48 hrs by liquid microculture method; assay type: functional
P388 = experiment: Cytotoxicity against mouse P388 cells assessed as cell growth inhibition measured after 48 hrs by MTT assay; assay type: functional, cell-based; conditions: P388, 48 h
Staphylococcus aureus = experiment: Antimicrobial activity against Staphylococcus aureus FDA209P JC-1 assessed as inhibition of bacterial growth incubated for 48 hrs by liquid microculture method; assay type: functional
Kocuria rhizophila = experiment: Antimicrobial activity against Kocuria rhizophila ATCC9341 assessed as inhibition of bacterial growth incubated for 48 hrs by liquid microculture method; assay type: functional
Candida albicans = experiment: Antimicrobial activity against Candida albicans NBRC0197 assessed as inhibition of […] growth incubated for 48 hrs by liquid microculture method; assay type: functional
[2] = test system: Agrobacterium tumefaciens; experiment: Antimicrobial activity against Rhizobium radiobacter NBRC14554 assessed as inhibition of bacterial growth incubated for 48 hrs by liquid microculture method; assay type: functional
Escherichia coli = experiment: Antimicrobial activity against Escherichia coli NIHJ JC-2 assessed as inhibition of bacterial growth incubated for 48 hrs by liquid microculture method; assay type: functional
Trichophyton rubrum = experiment: Antimicrobial activity against Trichophyton rubrum NBRC5467 assessed as inhibition of […] growth incubated for 48 hrs by liquid microculture method; assay type: functional

## C/C=C/c1ccccc1C/C=C/C=C\Cc1cc(=O)c2ccccc2[nH]1
[1]
  MIC: 25 µg/mL (≈ 73.2 µM)
P388
  IC50: 10 µM
Staphylococcus aureus
  MIC: 25 µg/mL (≈ 73.2 µM)
Kocuria rhizophila
  MIC: 13 µg/mL (≈ 38.1 µM)
Candida albicans
  MIC: > 100 µg/mL
[2]
  MIC: 50 µg/mL (≈ 146 µM)
Escherichia coli
  MIC: > 100 µg/mL
Trichophyton rubrum
  MIC: 13 µg/mL (≈ 38.1 µM)

## C/C=C/c1ccccc1C/C=C/C=C\CC(=O)O
[1]
  MIC: 6.3 µg/mL (≈ 26 µM)
P388
  IC50: 1.2 µM
Staphylococcus aureus
  MIC: 6.3 µg/mL (≈ 26 µM)
Kocuria rhizophila
  MIC: 13 µg/mL (≈ 53.6 µM)
Candida albicans
  MIC: > 100 µg/mL
[2]
  MIC: 25 µg/mL (≈ 103 µM)
Escherichia coli
  MIC: > 100 µg/mL
Trichophyton rubrum
  MIC: 13 µg/mL (≈ 53.6 µM)

## C/C=C/c1ccccc1/C=C/C=C/C(O)Cc1cc(=O)c2ccccc2[nH]1 (racemic)
[1]
  MIC: 13 µg/mL (≈ 36.4 µM)
P388
  IC50: 7.3 µM
Staphylococcus aureus
  MIC: 13 µg/mL (≈ 36.4 µM)
Kocuria rhizophila
  MIC: 6.3 µg/mL (≈ 17.6 µM)
Candida albicans
  MIC: > 100 µg/mL
[2]
  MIC: 50 µg/mL (≈ 140 µM)
Escherichia coli
  MIC: > 100 µg/mL
Trichophyton rubrum
  MIC: 6.3 µg/mL (≈ 17.6 µM)

## C[C@@H]1[C@H](O)[C@@H](C)/C=C/C=C/C=C/C=C/C=C/C=C/C=C/[C@H](O[C@@H]2O[C@H](C)[C@@H](O)[C@H](N)[C@@H]2O)C[C@@H]2O[C@](O)(C[C@@H](O)C[C@@H](O)[C@H](O)CC[C@@H](O)C[C@@H](O)CC(=O)O[C@H]1C)C[C@H](O)[C@H]2C(=O)O [AMPHOTERICIN B]
[1]
  MIC: 1.3 µg/mL (≈ 1.41 µM)
Candida albicans
  MIC: 0.78 µg/mL (≈ 0.844 µM)
Trichophyton rubrum
  MIC: 0.78 µg/mL (≈ 0.844 µM)

## COc1cccc2c1C(=O)c1c(O)c3c(c(O)c1C2=O)C[C@@](O)(C(=O)CO)C[C@@H]3O[C@H]1C[C@H](N)[C@H](O)[C@H](C)O1 [DOXORUBICIN]
P388
  IC50: 0.08 µM
